From patent US9920032B2, “Heterocyclic compounds useful as pim kinase inhibitors” (Incyte Corporation, priority 2015, dated 2018)

Experiments:
Type in all cases: biochemical
Pim-3 = Pim-3 (Homo sapiens (Human), UniProt Q86V86); assay: Pim-3 kinase assay; conditions: 1 mM ATP; read-out: PIM3 IC50
Procedure, shortened: (§1)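 Biotin-BAD peptide (0.05 μM) phosphorylated with 1 mM ATP by 2.5 pM Pim-1 or 1.25 pM Pim-3 in Tris pH 7.5/MgCl2/DTT buffer, 1 h at 25° C. EDTA stop; phospho-BAD (Ser112) antibody with streptavidin donor and Protein-A acceptor beads, 1 h dark at room temperature before AlphaScreen-type bead read.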

Pim-2 = Pim-2 (Homo sapiens (Human), UniProt Q9P1W9); assay: Pim-2 kinase assay; conditions: 1 mM ATP; read-out: PIM2 IC50
Procedure, shortened: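 TR-FRET assay with 1 nM enzyme, 0.05 μM fluorescein-CREBtide and 1 mM ATP in Tris pH 7.5 buffer with MgCl2, DTT, BSA and Tween-20, run 2 h at 25° C. Stopped with EDTA and Tb-labelled anti-CREB pSer133 antibody, then read after 30 min at room temperature.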

Pim-1 = Pim-1 (Homo sapiens (Human), UniProt P11309); assay: Pim-1 kinase assay; conditions: 1 mM ATP; read-out: PIM1 IC50
Procedure, shortened: as §1

Sequence of Pim-1 (P11309 whole entry): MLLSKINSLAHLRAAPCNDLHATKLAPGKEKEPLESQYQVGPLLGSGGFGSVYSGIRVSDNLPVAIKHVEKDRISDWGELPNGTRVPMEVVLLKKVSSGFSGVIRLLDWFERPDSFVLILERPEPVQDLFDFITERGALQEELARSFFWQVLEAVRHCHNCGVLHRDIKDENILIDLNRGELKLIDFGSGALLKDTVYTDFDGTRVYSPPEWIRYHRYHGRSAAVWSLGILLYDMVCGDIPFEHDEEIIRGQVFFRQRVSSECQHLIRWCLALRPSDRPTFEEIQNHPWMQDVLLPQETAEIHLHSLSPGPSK
Sequence of Pim-2 (Q9P1W9 whole entry): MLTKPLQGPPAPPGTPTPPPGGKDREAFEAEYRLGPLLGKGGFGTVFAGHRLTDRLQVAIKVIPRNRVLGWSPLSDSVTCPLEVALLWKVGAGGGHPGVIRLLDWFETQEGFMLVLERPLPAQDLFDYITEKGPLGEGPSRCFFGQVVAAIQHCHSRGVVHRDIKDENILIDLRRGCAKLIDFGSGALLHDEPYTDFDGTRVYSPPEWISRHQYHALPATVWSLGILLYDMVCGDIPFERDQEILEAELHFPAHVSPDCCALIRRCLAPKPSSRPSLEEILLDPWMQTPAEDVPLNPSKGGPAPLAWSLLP

| SMILES | IC50 (Pim-3) [nM] | IC50 (Pim-2) [nM] | IC50 (Pim-1) [nM] |
| --- | --- | --- | --- |
| C[C@@H]1C[C@H](N)C[C@H](c2ccncc2NC(=O)c2ccc(F)c3cc(-c4cn[nH]c4)cnc23)C1 [Example 66, N-(4-((1R,3S,5S)-3-amino-5-methylcyclohexyl)pyridin-3-yl)-5-fluoro-3-(1H-pyrazol-4-yl)quinoline-8-carboxamide] | ≤ 10 | 100 to 1000 | ≤ 10 |
| C[C@@H]1C[C@H](N)C[C@H](c2ccncc2NC(=O)c2cccc3cc(N4CCOC[C@H]4C)cnc23)C1 [Example 67, N-(4-((1R,3S,5S)-3-Amino-5-methylcyclohexyl)pyridin-3-yl)-3-((R)-3-methylmorpholino)quinoline-8-carboxamide] | ≤ 10 | ≤ 100 | ≤ 10 |
| C[C@@H]1C[C@H](N)C[C@H](c2ccncc2NC(=O)c2cccc3cc(N4CCC[C@H]4C)cnc23)C1 [Example 68, N-(4-((1R,3S,5S)-3-Amino-5-methylcyclohexyl)pyridin-3-yl)-3-((R)-2-methylpyrrolidin-1-yl)quinoline-8-carboxamide] | ≤ 10 | ≤ 100 | ≤ 10 |
| C[C@@H]1C[C@H](N)C[C@H](c2ccncc2NC(=O)c2cccc3cc(N4CCC[C@@H]4C)cnc23)C1 [Example 69, N-(4-((1R,3S,5S)-3-Amino-5-methylcyclohexyl)pyridin-3-yl)-3-((S)-2-methylpyrrolidin-1-yl)quinoline-8-carboxamide] | ≤ 10 | ≤ 100 | ≤ 10 |
| CC1CCCCN1c1cnc2c(C(=O)Nc3cnccc3[C@@H]3C[C@H](C)C[C@H](N)C3)cccc2c1 (stereo partly drawn) [Example 70, N-(4-((1R,3S,5S)-3-Amino-5-methylcyclohexyl)pyridin-3-yl)-3-(2-methylpiperidin-1-yl)quinoline-8-carboxamide] | ≤ 10 | 100 to 1000 | ≤ 10 |
| C[C@@H]1C[C@H](N)C[C@H](c2ccncc2NC(=O)c2cccc3cc(N4CCCCC4C(F)F)cnc23)C1 (stereo partly drawn) [Example 71, N-(4-((1R,3S,5S)-3-Amino-5-methylcyclohexyl)pyridin-3-yl)-3-(2-(difluoromethyl)piperidin-1-yl)quinoline-8-carboxamide] | ≤ 10 | 100 to 1000 | ≤ 10 |
| C[C@@H]1C[C@H](N)C[C@H](c2ccncc2NC(=O)c2cccc3cc(N(C)CC(F)F)cnc23)C1 [Example 72, N-(4-((1R,3S,5S)-3-Amino-5-methylcyclohexyl)pyridin-3-yl)-3-((2,2-difluoroethyl)(methyl)amino)quinoline-8-carboxamide] | ≤ 10 | 100 to 1000 | ≤ 10 |
| C[C@@H]1C[C@H](N)C[C@H](c2ccncc2NC(=O)c2ccc(F)c3cc(N4CCSCC4)cnc23)C1 [Example 73, N-(4-((1R,3S,5S)-3-Amino-5-methylcyclohexyl)pyridin-3-yl)-5-fluoro-3-thiomorpholinoquinoline-8-carboxamide] | ≤ 10 | ≤ 100 | ≤ 10 |
| C[C@@H]1C[C@H](N)C[C@H](c2ccncc2NC(=O)c2ccc(F)c3cc(N4CCN(S(=O)(=O)N(C)C)CC4)cnc23)C1 [Example 74, N-(4-((1R,3S,5S)-3-Amino-5-methylcyclohexyl)pyridin-3-yl)-3-(4-(N,N-dimethylsulfamoyl)piperazin-1-yl)-5-fluoroquinoline-8-carboxamide] | ≤ 10 | 100 to 1000 | ≤ 10 |
| C[C@@H]1C[C@H](N)C[C@H](c2ccncc2NC(=O)c2ccc(F)c3cc(N4CCN(C)C(=O)C4)cnc23)C1 [Example 75, N-(4-((1R,3S,5S)-3-Amino-5-methylcyclohexyl)pyridin-3-yl)-5-fluoro-3-(4-methyl-3-oxopiperazin-1-yl)quinoline-8-carboxamide] | ≤ 10 | ≤ 100 | ≤ 10 |
| C[C@@H]1C[C@H](N)C[C@H](c2ccncc2NC(=O)c2ccc(F)c3cc(N4CCCCCC4)cnc23)C1 [Example 76, N-(4-((1R,3S,5S)-3-Amino-5-methylcyclohexyl)pyridin-3-yl)-3-(azepan-1-yl)-5-fluoroquinoline-8-carboxamide] | ≤ 10 | ≤ 100 | ≤ 10 |
| C[C@@H]1C[C@H](N)C[C@H](c2ccncc2NC(=O)c2ccc(F)c3cc(N4C5CCC4COC5)cnc23)C1 [Example 77, N-(4-((1R,3S,5S)-3-Amino-5-methylcyclohexyl)pyridin-3-yl)-3-(3-oxa-8-azabicyclo[3.2.1]octan-8-yl)-5-fluoroquinoline-8-carboxamide] | ≤ 10 | ≤ 100 | ≤ 10 |
| C[C@@H]1C[C@H](N)C[C@H](c2ccncc2NC(=O)c2ccc(F)c3cc(N4CCCC4=O)cnc23)C1 [Example 78, N-(4-((1R,3S,5S)-3-Amino-5-methylcyclohexyl)pyridin-3-yl)-5-fluoro-3-(2-oxopyrrolidin-1-yl)quinoline-8-carboxamide] | ≤ 10 | 100 to 1000 | ≤ 10 |
| C[C@@H]1C[C@H](N)C[C@H](c2ccncc2NC(=O)c2ccc(F)c3cc(N4CCc5ccccc54)cnc23)C1 [Example 79, N-(4-((1R,3S,5S)-3-Amino-5-methylcyclohexyl)pyridin-3-yl)-5-fluoro-3-(indolin-1-yl)quinoline-8-carboxamide] | ≤ 10 | 100 to 1000 | ≤ 10 |
| C[C@@H]1C[C@H](N)C[C@H](c2ccncc2NC(=O)c2ccc(F)c3cc(N4C[C@H]5C[C@@H]4CO5)cnc23)C1 [Example 80, N-(4-((1R,3S,5S)-3-Amino-5-methylcyclohexyl)pyridin-3-yl)-3-((1R,4R)-2-oxa-5-azabicyclo[2.2.1]heptan-5-yl)-5-fluoroquinoline-8-carboxamide] | ≤ 10 | ≤ 100 | ≤ 10 |
| C[C@@H]1C[C@H](N)C[C@H](c2ccncc2NC(=O)c2ccc(F)c3cc(N4CC5CC(C4)O5)cnc23)C1 [Example 81, N-(4-((1R,3S,5S)-3-Amino-5-methylcyclohexyl)pyridin-3-yl)-3-(6-oxa-3-azabicyclo[3.1.1]heptan-3-yl)-5-fluoroquinoline-8-carboxamide] | ≤ 10 | ≤ 100 | ≤ 10 |
| C[C@@H]1C[C@H](N)C[C@H](c2ccncc2NC(=O)c2ccc(F)c3cc(N4CCN(C(=O)N(C)C)CC4)cnc23)C1 [Example 82, N-(4-((1R,3S,5S)-3-Amino-5-methylcyclohexyl)pyridin-3-yl)-3-(4-(dimethylcarbamoyl)piperazin-1-yl)-5-fluoroquinoline-8-carboxamide] | ≤ 10 | 100 to 1000 | ≤ 10 |
| C[C@@H]1C[C@H](N)C[C@H](c2ccncc2NC(=O)c2ccc(F)c3cc(N(C)c4ccccc4)cnc23)C1 [Example 83, N-(4-((1R,3S,5S)-3-Amino-5-methylcyclohexyl)pyridin-3-yl)-5-fluoro-3-(methyl(phenyl)amino)quinoline-8-carboxamide] | ≤ 10 | ≤ 100 | ≤ 10 |
| C[C@@H]1C[C@H](N)C[C@H](c2ccncc2NC(=O)c2ccc(F)c3cc(N4CCN5C(=O)CCC5C4)cnc23)C1 (stereo partly drawn) [Example 84, N-(4-((1R,3S,5S)-3-Amino-5-methylcyclohexyl)pyridin-3-yl)-5-fluoro-3-(6-oxohexahydropyrrolo[1,2-a]pyrazin-2(1H)-yl)quinoline-8-carboxamide] | ≤ 10 | 100 to 1000 | ≤ 10 |
| C[C@@H]1C[C@H](N)C[C@H](c2ccncc2NC(=O)c2ccc(F)c3cc(N4CCN(S(C)(=O)=O)C[C@@H]4C)cnc23)C1 [Example 85, N-(4-((1R,3S,5S)-3-Amino-5-methylcyclohexyl)pyridin-3-yl)-5-fluoro-3-((S)-2-methyl-4-(methylsulfonyl)piperazin-1-yl)quinoline-8-carboxamide] | ≤ 10 | 100 to 1000 | ≤ 10 |
| C[C@@H]1C[C@H](N)C[C@H](c2ccncc2NC(=O)c2ccc(F)c3cc(N4CCN(S(C)(=O)=O)C[C@H]4C)cnc23)C1 [Example 86, N-(4-((1R,3S,5S)-3-Amino-5-methylcyclohexyl)pyridin-3-yl)-5-fluoro-3-((R)-2-methyl-4-(methylsulfonyl)piperazin-1-yl)quinoline-8-carboxamide] | ≤ 10 | ≤ 100 | ≤ 10 |
| C[C@@H]1C[C@H](N)C[C@H](c2ccncc2NC(=O)c2ccc(F)c3cc(N4C[C@H]5C[C@@H]4CN5S(C)(=O)=O)cnc23)C1 [Example 87, N-(4-((1R,3S,5S)-3-Amino-5-methylcyclohexyl)pyridin-3-yl)-5-fluoro-3-((1R,4R)-5-(methylsulfonyl)-2,5-diazabicyclo[2.2.1]heptan-2-yl)quinoline-8-carboxamide] | ≤ 10 | 100 to 1000 | ≤ 10 |
| COC(=O)N1CCN(c2cnc3c(C(=O)Nc4cnccc4[C@@H]4C[C@H](C)C[C@H](N)C4)ccc(F)c3c2)[C@@H](C)C1 [Example 88, (S)-Methyl 4-(8-(4-((1R,3S,5S)-3-amino-5-methylcyclohexyl)pyridin-3-ylcarbamoyl)-5-fluoroquinolin-3-yl)-3-methylpiperazine-1-carboxylate] | ≤ 10 | ≤ 100 | ≤ 10 |
| COC(=O)N1CCN(c2cnc3c(C(=O)Nc4cnccc4[C@@H]4C[C@H](C)C[C@H](N)C4)ccc(F)c3c2)[C@H](C)C1 [Example 89, (R)-Methyl 4-(8-(4-((1R,3S,5S)-3-amino-5-methylcyclohexyl)pyridin-3-ylcarbamoyl)-5-fluoroquinolin-3-yl)-3-methylpiperazine-1-carboxylate] | ≤ 10 | ≤ 100 | ≤ 10 |
